pIC50: −log10 of the molar value.
Columns and labels:
[1] = Anxiolytic activity, Vogel test; type: in vivo; conditions: 30 mg/kg per os
Experimental: (§1) Results obtained on the products of the present invention are presented in the following and are expressed in percentage of increase by reference to an untreated control, with the product being administered per os at a dose of 30 mg/kg.

[2] = Anxiolytic activity, X-labyrinth test (elevated plus maze); type: in vivo; conditions: 30 mg/kg per os
Experimental: as §1

[3] = molecular target: T1, Lipoxygenase (Rattus norvegicus, UniProt P12527); assay: Inhibition of Lipoxygenase: inhibition of leukotriene B4 production by polymorphonuclear cells stimulated by Ionophore A 23 187; type: cell-based; conditions: polymorphonuclear peritoneal cell suspensions
T1 construct: suspensions of polymorphonuclear peritonea of rates stimulated by means of the Ionophore A 23 187; endogenous in cells; host or cells: rat peritoneal polymorphonuclear cells
T1 sequence (P12527 1-673): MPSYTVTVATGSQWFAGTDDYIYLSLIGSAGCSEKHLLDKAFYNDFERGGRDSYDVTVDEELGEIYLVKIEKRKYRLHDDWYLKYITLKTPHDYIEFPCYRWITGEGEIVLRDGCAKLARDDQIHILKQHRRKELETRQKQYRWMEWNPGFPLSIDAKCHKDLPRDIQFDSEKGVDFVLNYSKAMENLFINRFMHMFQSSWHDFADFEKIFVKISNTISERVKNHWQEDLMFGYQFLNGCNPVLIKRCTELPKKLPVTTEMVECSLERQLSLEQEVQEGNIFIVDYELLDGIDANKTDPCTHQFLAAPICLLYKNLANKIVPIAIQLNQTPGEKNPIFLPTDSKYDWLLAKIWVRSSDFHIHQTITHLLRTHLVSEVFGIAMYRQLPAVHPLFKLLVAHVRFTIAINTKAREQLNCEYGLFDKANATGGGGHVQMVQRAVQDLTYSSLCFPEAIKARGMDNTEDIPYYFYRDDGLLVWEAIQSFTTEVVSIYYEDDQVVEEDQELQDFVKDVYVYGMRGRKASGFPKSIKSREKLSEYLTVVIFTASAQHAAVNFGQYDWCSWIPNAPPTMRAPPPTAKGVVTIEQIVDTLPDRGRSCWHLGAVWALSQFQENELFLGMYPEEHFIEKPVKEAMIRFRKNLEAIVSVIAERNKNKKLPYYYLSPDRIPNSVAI

SMILES | Vogel test: percentage of increase by reference to an untreated control [1] | X-labyrinth test: percentage of increase by reference to an untreated control [2] | pIC50 [3]
Cc1cc(=O)c(OCc2ccccc2)nn1-c1cccc(C(F)(F)F)c1 [Compound 6, 1-Metatrifluoromethylphenyl-1,4-dihydro-3-benzyloxy-4-oxo-6-methylpyridazine] | 98% | 18% | 5.90
C=CCOc1nn(-c2cccc(C(F)(F)F)c2)c(C)cc1=O [Compound 5, 1-Metatrifluoromethylphenyl-1,4-dihydro-3-allyloxy-4-oxo-6-methylpyridazine] | 48% | – | –
O=c1ccn(-c2cccc(C(F)(F)F)c2)nc1OCc1ccccc1 [Compound 10, 1-Metatrifluoromethylphenyl-1,4-dihydro-3-benzyloxy-4-oxopyridazine] | 38% | – | 4.60
COc1nn(-c2cccc(C(F)(F)F)c2)c(C)cc1=O [Compound 2, 1-Metatrifluoromethylphenyl-1,4-dihydro-3-methoxy-4-oxo-6-methylpyridazine] | 95% | 95% | –
COc1nn(-c2cccc(C(F)(F)F)c2)ccc1=O [Compound 9, 1-Metatrifluoromethylphenyl-1,4-dihydro-3-methoxy-4-oxopyridazine] | 52% | 165% | –
Cc1cc(=O)c(OCc2ccc3ccccc3n2)nn1-c1cccc(C(F)(F)F)c1 [Compound 11, 1-Metatrifluoromethylphenyl-1,4-dihydro-3-(2-quinolylmethoxy)-4-oxo-6-methylpyridazine] | – | – | 5.96

Reference: patent US5254554A, “3-hydroxy-substituted-1-phenyl-1,4-dihydro-4-oxopyridazines and derivatives, and use” (Pierre Fabre Medicament, priority 1991, dated 1993)
